Measured values as given in patent US8933071B2, “Dimethyl fasudil for inducing polyploidization of megakaryocytes and for treating blood and bone marrow diseases and disorders” (Northwestern University, priority 2008, dated 2015).
Entries after “also recorded” stand apart in the source; their conditions may differ.

Legend:
[1] = test system: human AMKL leukemic cells; test: CFU-MK assay, bone marrow samples from patients with AMKL; assay type: cell-based; conditions: 5 μM, 14 days, AMKL patient bone marrow
Description: FIG. 8 illustrates that DMF blocks the growth of human AMKL leukemic cells. Mononuclear cells from patients with AMKL were cultured in methylcellulose in the presence of either DMSO or 5 μM of DMF.
Data with Patient Samples. Two lead compounds were tested on samples from both MPD (myeloproliferative disease) patients and AMKL (acute megakaryocytic leukemia) patients. […] Referring to FIG. 5, bone marrow mononuclear cells from a patient with ET were cultured with two doses of DMF for 10 days. […] Referring to FIG. 8, bone marrow samples from patients with AMKL were cultured in DMSO (control) or DMF (at 5 μM) for 14 days. Colonies were stained with anti-CD41 antibody and visualized by microcopy (not shown). Total numbers of CD41+ megakaryocyte colonies are shown.
AMKL Patient Specimens. Frozen bone marrow mononuclear cells of acute megakaryocytic leukemia (AMKL) were obtained from human patients with help from the Children's Oncology Group (COG). After thawing, cells were resuspended in IMDM media without serum. The cells were stained with 0.4% trypan blue solution for 5 minutes and live cells were counted. Live cells were assayed for leukemic potential in a CFU-MK assay (details below).
CFU-MK (Colony forming units-megakarvocvtes) assay. […] Slides were scored microscopically, and megakaryocyte colonies were defined as colonies with at least three megakaryocytes.

[2] = test system: 6133/MPL megakaryocytic leukemia cells; test: 6133/MPL transplant model of AMKL, pre-treatment of cells; assay type: in vivo, C57B1/6 mice
Description: FIG. 9 illustrates that DMF blocks the development of AMKL in vivo. a) Histology of spleens from control and 6133/MPL transplanted mice at 20 days. b) Survival analysis of the effect of DMF pre-treatment on AMKL development in recipient mice. p<0.0005 (Log rank test). N=6 mice (vehicle (DMSO) pre-treatment) or N=7 (DMF pre-treatment) per group.
To determine whether polyploidization-inducing agents can serve as new therapies for AMKL, we established an AMKL animal model. We developed an animal model of AMKL by transplanting 6133/MPL megakaryocytic leukemia cells (35) into sub-lethally irradiated recipient C57B1/6 mice. The parental 6133 cell line, which is dependent upon TPO for survival, was derived from a leukemic mouse that expressed the AMKL t(1:22) fusion protein OTT-MAL by knock-in gene targeting. 6133 cells were then transduced with a MPLW515L expressing retrovirus, and stable TPO-independent clones were isolated. We discovered that C57B1/6 mice transplanted with 1 million 6133/MPL cells developed a fulminant AMKL within 21 days. The disease was characterized by massive infiltration of CD41+ cells in the bone marrow and spleen. These mice will be utilized as animal models to quantify the effect of small molecule inducers of polyploidization on disease progression in vivo.
To determine whether polyploidization-inducing agents can serve as new therapies for AMKL, DMF was assessed in an animal model for AMKL. To this end, an animal model of AMKL was developed by transplanting 6133/MPL megakaryocytic leukemia cells into sub-lethally irradiated recipient C57B1/6 mice. The parental 6133 cell line, which is dependent upon TPO for survival, was derived from a leukemic mouse that expressed the AMKL t(1:22) fusion protein OTT-MAL by knock-in gene targeting (35). […]
C57BL/6 mice (purchased from the Jackson Laboratory, Bar Harbor, Me.) were sub-lethally irradiated with 600 rads. […] Development of disease was assessed with presence of GFP-positive cells in the peripheral blood by FACS and by monitoring the health and body weight of the animals. […]

[3] = test system: GIME cells; test: Polyploidization of GIME cells (DNA content by flow cytometry); assay type: cell-based; conditions: GIME cells, 48 hours, DAPI, flow cytometry
Description: (A) Y10, (B) GIME, and (C) CMK cells were grown in the presence of TPO, SU6656, or vehicle (DMSO) for 72 hours. DNA content was measured by flow cytometry. The percentages of cells that reach a DNA content of ≧8N are boxed in A and C, those equal to 8N are boxed in B. D) CMK cells were grown as in (C), and cell numbers were enumerated at 0, 24, 48 and 72 h.
DNA content was then assessed by flow cytometry. Numbers above the bar indicate % of cells ≧8N. b) After 48 hours, GIME cells from a) were stained with anti-CD42 antibodies and the cell surface expression of CD42 was evaluated by flow cytometry.
To study how megakaryocytes switch from a proliferative to endomitotic cell cycle, the Src kinase inhibitor SU6656 is being utilized.

Which results are given for dimethylfasudil [DMF]?
growth of human leukemia cells (CD41+ megakaryocyte colonies) [1]: potently blocked growth; development/progression of AMKL in recipient mice ([2]; 6133/MPL cells pre-treated with 5 μM for 24 hours before transplant): interfered with their ability to cause a tumor; also recorded: striking and significant delay in progression of AMKL; time mice healthy with no signs of disease ([2]; all mice implanted with cells pre-treated with 5 μM for 24 hours): at least 200 days; survival analysis p (Log rank test) ([2]; pre-treatment vs vehicle (DMSO) pre-treatment): < 0.0005; induction of polyploidization [3]: potent inducers; induction of polyploidization ([3]; listed as Rho-kinase inhibitor): potent inducer of polyploidization
